According to US20210238138A1, “Method for improving nucleation of crystals from solution” (Université Libre de Bruxelles, priority 2018, published 2021):

What was measured:
[1] = Cooling crystallisation of Brivaracetam/IPAc in capillary tubing; type: physicochemical; conditions: 7 m tubing; for Appearance of crystals: 30 mL/min, 1 restriction, bath 20° C., initial 45° C.
Procedure: For example, following tests were made on Brivaracetam/IPAc (IsoPropylAcetate) at different concentrations. Induction time (appearance of crystals) is shown in table 1 for different increasing concentrations at a crystallization temperature of 20° C. after flowing through the tube at 30 mL/min in a 7 m long tubing.
(so same overall supersaturation). The variation in crystal size is shown without and with a 5 cm long 500 μm restriction. “Needles and rods” indicate appearance of concurring crystallizations of the two possible crystal types of Brivaracetam. Therefore the method also influences selectivity for one single crystal form. In the case of Brivaracetam, rods are preferred.
The advantage of using restriction(s) has already been indicated in previous tables. A series of tests was also performed using identical conditions and only changing the number of identical restrictions. In table 3, the tests were performed with restrictions of 1 mm in length and having an inner diameter of 500 μm. Crystal length decreases drastically when placing more restrictions in series in the tubing line.
Also different geometries of restriction were tested on Brivaracetam/IPAc mixtures: different lengths and different inner diameters.
The crystallization temperature is controlled by a water bath containing about 5 L of water, temperature is monitored at all times by a thermocouple. This water is cooled by a 1 m long cupper serpentine plunged into the bath with cooling liquid flowing from and to a cryothermostat, the water bath itself is agitated with a magnetic bar stirrer. The internal volume of a 7 m long tubing of […] is about 22 mL. As this volume is 220 times smaller than the volume of the present water it is assumed that the water temperature remains within a 0.5° C. or smaller margin of the set temperature value.

[2] = Solubility temperature and spontaneous nucleation temperature of aspirin solution; type: physicochemical; conditions: 200 mg/mL in 50/50 vol % ethanol/water
Excerpt: The transition time is defined as the time necessary to reach crystallization conditions in the used setup (i.e. time for a fluid particle flowing in the liquid to get from undersaturated conditions to nucleation conditions). Therefore, this time is at a given concentration dominated by the difference in temperature between the solubility temperature and the metastable zone width or MSZW. At temperatures below this MSZW the solute in solution starts to nucleate spontaneously. […] (both measured). The transition time is then defined as the time needed to overcome this 20° C. difference in temperature.

[3] = test 2: 600 mg/mL in IPAc, Tc 0° C., σ 11, Q 43 mL/min, no restriction
[4] = test 3: 600 mg/mL in IPAc, Tc 0° C., σ 11, Q 32 mL/min, no restriction
[5] = test 4: 600 mg/mL in IPAc, Tc 0° C., σ 11, Q 21 mL/min, no restriction
[6] = test 6: 600 mg/mL in IPAc, Tc 0° C., σ 11, Q 43 mL/min, restriction 5 cm long, 500 μm
[7] = test 7: 600 mg/mL in IPAc, Tc 0° C., σ 11, Q 32 mL/min, restriction 5 cm long, 500 μm
[8] = test 8: 600 mg/mL in IPAc, Tc 0° C., σ 11, Q 21 mL/min, restriction 5 cm long, 500 μm
[9] = test 9: 400 mg/mL in IPAc, Tc 10° C., σ 4.7, Q 30 mL/min, 0 restrictions
[10] = test 9 as listed in Table 4: 400 mg/mL in IPAc, Tc 10° C., σ 4.7, Q 30 mL/min, restriction none
[11] = test 10: 400 mg/mL in IPAc, Tc 10° C., σ 4.7, Q 30 mL/min, 1 restriction 1 mm long, 500 μm
[12] = test 11: 400 mg/mL in IPAc, Tc 10° C., σ 4.7, Q 30 mL/min, 1 restriction 1 mm long, 500 μm
[13] = test 12: 400 mg/mL in IPAc, Tc 10° C., σ 4.7, Q 30 mL/min, 2 restrictions 1 mm long, 500 μm
[14] = test 13: 400 mg/mL in IPAc, Tc 10° C., σ 4.7, Q 30 mL/min, 2 restrictions 1 mm long, 500 μm
[15] = test 14: 400 mg/mL in IPAc, Tc 10° C., σ 4.7, Q 30 mL/min, 3 restrictions 1 mm long, 500 μm
[16] = test 15: 400 mg/mL in IPAc, Tc 10° C., σ 4.7, Q 30 mL/min, 3 restrictions 1 mm long, 500 μm
[17] = test 16: 400 mg/mL in IPAc, Tc 10° C., σ 4.7, Q 30 mL/min, 4 restrictions 1 mm long, 500 μm
[18] = test 17: 400 mg/mL in IPAc, Tc 10° C., σ 4.7, Q 30 mL/min, one restriction length 5 cm, diameter 500 μm
[19] = test 18: 400 mg/mL in IPAc, Tc 10° C., σ 4.7, Q 30 mL/min, one restriction length 5 cm, diameter 750 μm
[20] = test 19: 400 mg/mL in IPAc, Tc 10° C., σ 4.7, Q 30 mL/min, one restriction length 20 cm, diameter 500 μm
[21] = test 20: 400 mg/mL in IPAc, Tc 10° C., σ 4.7, Q 30 mL/min, one restriction length 50 cm, diameter 500 μm
[22] = test 21: 400 mg/mL in IPAc, Tc 10° C., σ 4.7, Q 30 mL/min, one restriction length 100 cm, diameter 500 μm

CCC[C@@H]1CC(=O)N([C@@H](CC)C(N)=O)C1 [Brivaracetam]
Appearance of crystals ([1]; 150 mg/mL in IPAc, supersaturation 0.09): None
Appearance of crystals ([1]; 200 mg/mL in IPAc, supersaturation 0.47): None
Appearance of crystals ([1]; 250 mg/mL in IPAc, supersaturation 0.83): 20 h
Appearance of crystals ([1]; 300 mg/mL in IPAc, supersaturation 1.21): 2 h
Appearance of crystals ([1]; 350 mg/mL in IPAc, supersaturation 1.57): 0.5 h
Appearance of crystals ([1]; 400 mg/mL in IPAc, supersaturation 1.94): Immediate
Appearance of crystals ([1]; 500 mg/mL in IPAc, supersaturation 2.68): Immediate
Appearance of crystals ([1]; 600 mg/mL in IPAc, supersaturation 3.41): Immediate, white slurry
Appearance of crystals ([1]; 800 mg/mL in IPAc, supersaturation 4.88): Immediate, white slurry
Appearance crystals ([1]; test 1: 600 mg/mL in IPAc, Tc 0° C., σ 11, Q 54 mL/min, no restriction): Needles
Appearance crystals [1, 3]: Rods
Crystal length [1, 3]: 1020 ± 196 μm
J (nucleation rate) [1, 3]: 2 100 mL^−1 · s^−1
Appearance crystals [1, 4]: Rods
Crystal length [1, 4]: 365 ± 106 μm
J (nucleation rate) [1, 4]: 43 000 mL^−1 · s^−1
Appearance crystals [1, 5]: Rods
Crystal length [1, 5]: 258 ± 76 μm
J (nucleation rate) [1, 5]: 121 000 mL^−1 · s^−1
Appearance crystals ([1]; test 5: 600 mg/mL in IPAc, Tc 0° C., σ 11, Q 54 mL/min, restriction 5 cm long, 500 μm): Needles
Appearance crystals [1, 6]: Rods
Crystal length [1, 6]: 227 ± 64 μm
J (nucleation rate) [1, 6]: 181 000 mL^−1 · s^−1
Appearance crystals [1, 7]: Rods
Crystal length [1, 7]: 121 ± 33 μm
J (nucleation rate) [1, 7]: 1 200 000 mL^−1 · s^−1
Appearance crystals [1, 8]: Rods
Crystal length [1, 8]: 175 ± 100 μm
J (nucleation rate) [1, 8]: 400 000 mL^−1 · s^−1
Appearance crystals [1, 9]: Rods
Crystal length [1, 9]: 195 μm
J (nucleation rate) [1, 9]: 66 000 mL.^−1s^−1
Appearance crystals [1, 10]: Rods
Crystal length [1, 10]: 195 μm
J (nucleation rate) [1, 10]: 131 000 mL^−1 · s^−1
Appearance crystals [1, 11]: Rods
Crystal length [1, 11]: 62 μm
J (nucleation rate) [1, 11]: 3 085 000 mL.^−1s^−1
Appearance crystals [1, 12]: Rods
Crystal length [1, 12]: 62 μm
J (nucleation rate) [1, 12]: 1 609 000 mL.^−1s^−1
Appearance crystals [1, 13]: Rods
Crystal length [1, 13]: 46 μm
J (nucleation rate) [1, 13]: 8 500 000 mL.^−1s^−1
Appearance crystals [1, 14]: Rods
Crystal length [1, 14]: 43 μm
J (nucleation rate) [1, 14]: 7 300 000 mL.^−1s^−1
Appearance crystals [1, 15]: Rods
Crystal length [1, 15]: 37 μm
J (nucleation rate) [1, 15]: 12 000 000 mL.^−1s^−1
Appearance crystals [1, 16]: Rods
Crystal length [1, 16]: 40 μm
J (nucleation rate) [1, 16]: 11 500 000 mL.^−1s^−1
Appearance crystals [1, 17]: Rods
Crystal length [1, 17]: 35 μm
J (nucleation rate) [1, 17]: 9 700 000 mL.^−1s^−1
Appearance crystals [1, 18]: Rods
Crystal length [1, 18]: 143 μm
J (nucleation rate) [1, 18]: 310 000 mL^−1 · s^−1
Appearance crystals [1, 19]: Rods
Crystal length [1, 19]: 120 μm
J (nucleation rate) [1, 19]: 500 000 mL^−1 · s^−1
Appearance crystals [1, 20]: Rods
Crystal length [1, 20]: 95 μm
J (nucleation rate) [1, 20]: 642 000 mL^−1 · s^−1
Appearance crystals [1, 21]: Rods
Crystal length [1, 21]: 207 μm
J (nucleation rate) [1, 21]: 132 000 mL^−1 · s^−1
Appearance crystals [1, 22]: Rods
Crystal length [1, 22]: 211 μm
J (nucleation rate) [1, 22]: 107 000 mL^−1 · s^−1

CC(=O)Oc1ccccc1C(=O)O [Acetylsalicylic acid, acetylsalicylic acid]
Solubility temperature [2]: 40 °C
Temperature at which spontaneous nucleation starts [2]: 20 °C
